Some results are limits rather than exact numbers.

The target of one assay is T1, ER (Homo sapiens, UniProt P03372).
T1 construct: host or cells: T47D and MCF7 human breast cancer cells
T1 sequence (P03372 1-595): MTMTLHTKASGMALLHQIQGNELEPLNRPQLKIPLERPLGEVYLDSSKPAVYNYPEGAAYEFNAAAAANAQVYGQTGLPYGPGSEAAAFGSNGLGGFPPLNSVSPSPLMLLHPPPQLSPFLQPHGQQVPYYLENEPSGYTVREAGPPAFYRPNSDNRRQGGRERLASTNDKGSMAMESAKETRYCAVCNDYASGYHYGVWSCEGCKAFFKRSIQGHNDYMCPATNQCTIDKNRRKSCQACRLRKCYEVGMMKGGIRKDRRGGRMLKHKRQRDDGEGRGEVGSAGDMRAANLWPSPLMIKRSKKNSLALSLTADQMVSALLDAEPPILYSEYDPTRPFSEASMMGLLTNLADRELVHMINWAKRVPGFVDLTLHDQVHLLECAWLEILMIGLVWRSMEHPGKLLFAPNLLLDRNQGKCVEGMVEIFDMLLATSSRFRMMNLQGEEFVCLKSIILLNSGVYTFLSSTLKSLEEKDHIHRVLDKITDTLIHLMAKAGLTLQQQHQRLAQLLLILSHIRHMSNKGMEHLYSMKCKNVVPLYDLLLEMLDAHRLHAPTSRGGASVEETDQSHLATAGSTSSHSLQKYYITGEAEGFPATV
As to the kind of experiment: ER degradation activity, in-cell western blot analysis in T47D cells. To be noted: 16 hours, Table A does not say which cell line (T47D or MCF7), read-out: Potency (DC50). The format is cell-based. The gist of the method:
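Read-out is near-infrared fluorescence from an in-cell western, expressed as ER percentage relative to untreated and DMSO controls taken as 100%. T47D breast cancer cells received compound for 16 h in 0.5% DMSO.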
What is called DC50 is the midpoint of the concentration-degradation curve. Take `C[C@@H]1Cc2cc(O)ccc2[C@@H](c2ccc(N3CCC(C(=O)N4CCC(N5Cc6cc7c(cc6C5)C(=O)N(C5CCC(=O)NC5=O)C7=O)CC4)CC3)cc2)N1CC(F)F` (stereo partly drawn) [E 318, 6-(1-(1-(4-((1R,3R)-2-(2,2-difluoroethyl)-6-hydroxy-3-methyl-1,2,3,4-tetrahydroisoquinolin-1-yl)phenyl)piperidine-4-carbonyl)piperidin-4-yl)-2-(2,6-dioxopiperidin-3-yl)-6,7-dihydropyrrolo[3,4-f]isoindole-1,3(2H,5H)-dione]: the DC50 was < 10 nM. On to `C[C@@H]1Cc2c([nH]c3ccccc23)[C@@H](c2c(F)cc(N3CCC(N4CC(CN5Cc6cc7c(cc6C5)C(=O)N(C5CCC(=O)NC5=O)C7=O)C4)CC3)cc2F)N1CC(F)F` (stereo partly drawn) [E 117, 6-((1-(1-(4-((1R,3R)-2-(2,2-difluoroethyl)-3-methyl-2,3,4,9-tetrahydro-1H-pyrido[3,4-b]indol-1-yl)-3,5-difluorophenyl)piperidin-4-yl)azetidin-3-yl)methyl)-2-(2,6-dioxopiperidin-3-yl)-6,7-dihydropyrrolo[3,4-f]isoindole-1,3(2H,5H)-dione], for which the 50% degradation concentration (DC50) fell in the range of 10 to 100 nM. Same read-out and setting: the value for `C[C@@H]1Cc2cc(O)ccc2[C@@H](c2c(F)cc(N3CCC4(CN(C(=O)CN5Cc6cc7c(cc6C5)C(=O)N(C5CCC(=O)NC5=O)C7)C4)C3)cc2F)N1CC(F)F` (stereo partly drawn) [E 37, 3-(6-(2-(6-(4-((1S,3R)-2-(2,2-difluoroethyl)-6-hydroxy-3-methyl-1,2,3,4-tetrahydroisoquinolin-1-yl)-3,5-difluorophenyl)-2,6-diazaspiro[3.4]octan-2-yl)-2-oxoethyl)-1-oxo-3,5,6,7-tetrahydropyrrolo[3,4-f]isoindol-2(1H)-yl)piperidine-2,6-dione] was < 10 nM. Consider `CCC(=C(c1ccc(O)cc1)c1ccc(N2CCC3(CC2)CN(C(=O)CN2Cc4cc5c(cc4C2)C(=O)N(C2CCC(=O)NC2=O)C5=O)C3)cc1)c1ccccc1` (centres unmarked) [E 242, 2-(2,6-dioxopiperidin-3-yl)-6-(2-(7-(4-(1-(4-hydroxyphenyl)-2-phenylbut-1-en-1-yl)phenyl)-2,7-diazaspiro[3.5]nonan-2-yl)-2-oxoethyl)-6,7-dihydropyrrolo[3,4-f]isoindole-1,3(2H,5H)-dione], for which the half-maximal degradation concentration (DC50) lay within 10 to 100 nM. On the same count and under the same terms, the value for `O=C1CCC(N2C(=O)c3cc4c(cc3C2=O)CN(CCN2CC3(CCN(c5ccc([C@@H]6c7ccc(O)cc7CC[C@@H]6c6ccccc6)cc5)CC3)C2)C4)C(=O)N1` (mixture of isomers) [E 267, rac-2-(2,6-dioxopiperidin-3-yl)-6-(2-(7-(4-((1R,2S)-6-hydroxy-2-phenyl-1,2,3,4-tetrahydronaphthalen-1-yl)phenyl)-2,7-diazaspiro[3.5]nonan-2-yl)ethyl)-6,7-dihydropyrrolo[3,4-f]isoindole-1,3(2H,5H)-dione] was 10 to 100 nM; that for `C[C@@H]1Cc2cc(O)ccc2[C@@H](c2c(F)cc(N3CCC4(CC3)CN(C(=O)CN3Cc5cc6c(cc5C3)C(=O)N(C3CCC(=O)NC3=O)C6)C4)cc2F)N1CC(F)F` (some centres unmarked) [E 35] was < 10 nM; that for `C[C@@H]1Cc2cc(O)ccc2[C@@H](c2c(F)cc(N3CC4(CN(C(=O)CN5Cc6cc7c(cc6C5)C(=O)N(C5CCC(=O)NC5=O)C7=O)C4)C3)cc2F)N1CC(F)F` (stereo partly drawn) [E 42, 6-(2-(6-(4-((1S,3R)-2-(2,2-difluoroethyl)-6-hydroxy-3-methyl-1,2,3,4-tetrahydroisoquinolin-1-yl)-3,5-difluorophenyl)-2,6-diazaspiro[3.3]heptan-2-yl)-2-oxoethyl)-2-(2,6-dioxopiperidin-3-yl)-6,7-dihydropyrrolo[3,4-f]isoindole-1,3(2H,5H)-dione] was < 10 nM.

The assay is the same for the next values; noted with them: compounds 16 hours, Table A does not say whether T47D or MCF7, read-out: Potency (DC50).
For the compound `O=C1CCC(N2C(=O)c3cc4c(cc3C2=O)CC2(C4)CN(C(=O)C3CCN(c4ccc([C@@H]5c6ccc(O)cc6CC[C@@H]5c5ccccc5)cc4)CC3)C2)C(=O)N1` (stereo partly drawn) [E 501, 2′-(2,6-dioxopiperidin-3-yl)-1-(1-(4-((1R,2S)-6-hydroxy-2-phenyl-1,2,3,4-tetrahydronaphthalen-1-yl)phenyl)piperidine-4-carbonyl)-5′,7′-dihydro-1′H-spiro[azetidine-3,6′-cyclopenta[f]isoindole]-1′,3′(2′H)-dione], the 50% degradation concentration (DC50) was > 100 nM.

Source of the values: patent publication US20240190880A1 (THE REGENTS OF THE UNIVERSITY OF MICHIGAN, priority 2021, published 2024).
